Measured values: PubChem BioAssay (NCI)
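At the GI50, growth is halved. Definition used: TGI = concentration required for complete inhibition of growth.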

Columns and labels:
Assay in all cases: DTP human tumour cell line panel, 384-well format
EKVX NSCLC = test system: EKVX NSCLC
COLO 205 colon = test system: COLO 205 colon
SN12C renal = test system: SN12C renal
DU-145 prostate = test system: DU-145 prostate
SNB-75 CNS = test system: SNB-75 CNS
M14 melanoma = test system: M14 melanoma
SK-MEL-28 melanoma = test system: SK-MEL-28 melanoma
MALME-3M melanoma = test system: MALME-3M melanoma
A549 NSCLC = test system: A549 NSCLC
SF-295 CNS = test system: SF-295 CNS
MOLT-4 leukemia = test system: MOLT-4 leukemia
LOX IMVI melanoma = test system: LOX IMVI melanoma
TK-10 renal = test system: TK-10 renal
NCI/ADR-RES ovarian = test system: NCI/ADR-RES ovarian
U251 glioblastoma = test system: U251 glioblastoma
A498 renal = test system: A498 renal
OVCAR-4 ovarian = test system: OVCAR-4 ovarian
NCI-H226 lung = test system: NCI-H226 lung
HL-60(TB) leukemia = test system: HL-60(TB) leukemia
UACC-257 melanoma = test system: UACC-257 melanoma
IGROV1 ovarian = test system: IGROV1 ovarian
SK-MEL-5 melanoma = test system: SK-MEL-5 melanoma
UACC-62 melanoma = test system: UACC-62 melanoma
NCI-H522 lung = test system: NCI-H522 lung
HCT-116 colon = test system: HCT-116 colon
CCRF-CEM leukemia = test system: CCRF-CEM leukemia
KM12 colon = test system: KM12 colon
NCI-H23 lung = test system: NCI-H23 lung
SK-OV-3 ovarian = test system: SK-OV-3 ovarian
SNB-19 CNS = test system: SNB-19 CNS
HS 578T breast = test system: HS 578T breast
MCF7 breast = test system: MCF7 breast
MDA-MB-435 melanoma = test system: MDA-MB-435 melanoma
OVCAR-8 ovarian = test system: OVCAR-8 ovarian
ACHN renal = test system: ACHN renal
RXF 393 renal = test system: RXF 393 renal
PC-3 prostate = test system: PC-3 prostate
OVCAR-3 ovarian = test system: OVCAR-3 ovarian
786-0 renal = test system: 786-0 renal
K-562 leukemia = test system: K-562 leukemia
HCC-2998 colon = test system: HCC-2998 colon
SF-539 CNS = test system: SF-539 CNS
NCI-H460 NSCLC = test system: NCI-H460 NSCLC
HCT-15 colon = test system: HCT-15 colon
SF-268 CNS = test system: SF-268 CNS
HOP-92 NSCLC = test system: HOP-92 NSCLC
HT29 colon = test system: HT29 colon
CAKI-1 renal = test system: CAKI-1 renal
MDA-MB-468 breast = test system: MDA-MB-468 breast
SW-620 colon = test system: SW-620 colon
NCI-H322M lung = test system: NCI-H322M lung
BT-549 breast = test system: BT-549 breast
HOP-62 NSCLC = test system: HOP-62 NSCLC
SK-MEL-2 melanoma = test system: SK-MEL-2 melanoma
RPMI-8226 leukemia = test system: RPMI-8226 leukemia

CC1=CC(=O)C=CC1=Nc1ccc(N(C)C)cc1
GI50 (EKVX NSCLC): 11.3 µM
TGI (EKVX NSCLC): 23.5 µM
GI50 (COLO 205 colon): 2.92 µM
TGI (COLO 205 colon): 7.43 µM
GI50 (SN12C renal): 11.6 µM
TGI (SN12C renal): 23.9 µM
GI50 (DU-145 prostate): 14 µM
TGI (DU-145 prostate): 27 µM
GI50 (SNB-75 CNS): 17.4 µM
TGI (SNB-75 CNS): 31.2 µM
GI50 (M14 melanoma): 12.5 µM
TGI (M14 melanoma): 25 µM
GI50 (SK-MEL-28 melanoma): 15.6 µM
TGI (SK-MEL-28 melanoma): 29 µM
GI50 (MALME-3M melanoma): 15.3 µM
TGI (MALME-3M melanoma): 28.6 µM
GI50 (A549 NSCLC): 15.3 µM
TGI (A549 NSCLC): 28.8 µM
GI50 (SF-295 CNS): 15.3 µM
TGI (SF-295 CNS): 28.7 µM
GI50 (MOLT-4 leukemia): 1.38 µM
TGI (MOLT-4 leukemia): 2.68 µM
GI50 (LOX IMVI melanoma): 11.6 µM
TGI (LOX IMVI melanoma): 23.9 µM
GI50 (TK-10 renal): 10.7 µM
TGI (TK-10 renal): 22.6 µM
GI50 (NCI/ADR-RES ovarian): 6.51 µM
TGI (NCI/ADR-RES ovarian): 19.2 µM
GI50 (U251 glioblastoma): 10.4 µM
TGI (U251 glioblastoma): 22.2 µM
GI50 (A498 renal): 11.4 µM
TGI (A498 renal): 23.6 µM
GI50 (OVCAR-4 ovarian): 2.58 µM
TGI (OVCAR-4 ovarian): 12.4 µM
GI50 (NCI-H226 lung): 8.38 µM
TGI (NCI-H226 lung): 20.6 µM
GI50 (HL-60(TB) leukemia): 1.33 µM
TGI (HL-60(TB) leukemia): 2.62 µM
GI50 (UACC-257 melanoma): 6.22 µM
TGI (UACC-257 melanoma): 18.4 µM
GI50 (IGROV1 ovarian): 12.1 µM
TGI (IGROV1 ovarian): 24.5 µM
GI50 (SK-MEL-5 melanoma): 6.37 µM
TGI (SK-MEL-5 melanoma): 19.9 µM
GI50 (UACC-62 melanoma): 1.83 µM
TGI (UACC-62 melanoma): 3.92 µM
GI50 (NCI-H522 lung): 2.21 µM
TGI (NCI-H522 lung): 10.4 µM
GI50 (HCT-116 colon): 2.67 µM
TGI (HCT-116 colon): 8.2 µM
GI50 (CCRF-CEM leukemia): 1.43 µM
TGI (CCRF-CEM leukemia): 2.77 µM
GI50 (KM12 colon): 12.6 µM
TGI (KM12 colon): 25.3 µM
GI50 (NCI-H23 lung): 4.94 µM
TGI (NCI-H23 lung): 18 µM
GI50 (SK-OV-3 ovarian): 15.5 µM
TGI (SK-OV-3 ovarian): 29 µM
GI50 (SNB-19 CNS): 15.3 µM
TGI (SNB-19 CNS): 28.7 µM
GI50 (HS 578T breast): 12.3 µM
TGI (HS 578T breast): 24.8 µM
GI50 (MCF7 breast): 3.46 µM
TGI (MCF7 breast): 13.3 µM
GI50 (MDA-MB-435 melanoma): 2.52 µM
TGI (MDA-MB-435 melanoma): 6.2 µM
GI50 (OVCAR-8 ovarian): 3.49 µM
TGI (OVCAR-8 ovarian): 9.79 µM
GI50 (ACHN renal): 5.29 µM
TGI (ACHN renal): 18.7 µM
GI50 (RXF 393 renal): 4.87 µM
TGI (RXF 393 renal): 16.6 µM
GI50 (PC-3 prostate): 3.22 µM
TGI (PC-3 prostate): 10.4 µM
GI50 (OVCAR-3 ovarian): 1.6 µM
TGI (OVCAR-3 ovarian): 3.06 µM
GI50 ([…]-0 renal): 13 µM
TGI (786-0 renal): 25.7 µM
GI50 (K-562 leukemia): 12.1 µM
TGI (K-562 leukemia): 24.5 µM
GI50 (HCC-2998 colon): 5.21 µM
TGI (HCC-2998 colon): 20.1 µM
GI50 (SF-539 CNS): 10.1 µM
TGI (SF-539 CNS): 21.7 µM
GI50 (NCI-H460 NSCLC): 16.4 µM
TGI (NCI-H460 NSCLC): 30.2 µM
GI50 (HCT-15 colon): 11.4 µM
TGI (HCT-15 colon): 23.6 µM
GI50 (SF-268 CNS): 16.5 µM
TGI (SF-268 CNS): 30.1 µM
GI50 (HOP-92 NSCLC): 2.65 µM
TGI (HOP-92 NSCLC): 6.19 µM
GI50 (HT29 colon): 14.4 µM
TGI (HT29 colon): 27.7 µM
GI50 (CAKI-1 renal): 8.66 µM
TGI (CAKI-1 renal): 20.8 µM
GI50 (MDA-MB-468 breast): 0.361 µM
TGI (MDA-MB-468 breast): 1.34 µM
GI50 (SW-620 colon): 13.4 µM
TGI (SW-620 colon): 26.4 µM
GI50 (NCI-H322M lung): 17.6 µM
TGI (NCI-H322M lung): 31.5 µM
GI50 (BT-549 breast): 6.14 µM
TGI (BT-549 breast): 18.6 µM
GI50 (HOP-62 NSCLC): 3.92 µM
TGI (HOP-62 NSCLC): 9.14 µM
GI50 (SK-MEL-2 melanoma): 1.77 µM
TGI (SK-MEL-2 melanoma): 3.26 µM
GI50 (RPMI-8226 leukemia): 1.76 µM
TGI (RPMI-8226 leukemia): 3.19 µM
